# Laboratory results from PMC2120305 (The Journal of Cell Biology, 1994).
# Where “and” joins values, the source holds several entries; their conditions need not be identical. Equal entries are not always repeated. Where two headings read alike, the source gives them in different places.
# Key:
# [1] = tested on: glycosylation of VSV-g protein; assay type: biochemical, CHO cells
# [2] = tested on: glycosylation of endogenous VSV-g protein; assay type: biochemical, CHO cells
# [3] = tested on: Golgi membranes; assay: Membrane integrity: retention of a preformed UDP-[3H]-GlcNAc gradient; assay type: biochemical, CHO cells; conditions: Fig. 5 A; MAS 3.3 µM, ARFp13 43 µM, NEM 1 mM, SDS 50 µM; 10 min with inhibitors
# [4] = tested on: release of vesicles from the TGN of PC12 cells; conditions: cited from earlier work
# [5] = tested on: in vitro Golgi transport; assay type: biochemical, CHO cells
# [6] = tested on: beta-COP binding to isolated Golgi membranes; conditions: 25 µM MAS; cited from earlier work
# [7] = tested on: p200 binding to rat liver Golgi membranes; conditions: 100 µM MAS; cited from earlier work
compound,measurement,setting,value
CCN1C(=O)C=CC1=O [NEM],Glycosylation of VSV-g protein after its delivery to the acceptor compartment,[1],subse- quent glycosylation is inhibited
same,Effect on glycosylation of VSV-g protein,[2],similarly inhibitory effect
same,Integrity of the membranes,[3],near complete loss of membrane integrity
CCCCCCCCCCCCOS(=O)(=O)[O-].[Na+] [SDS],Effect on glycosylation of VSV-g protein,[2],similarly inhibitory effect
same,Integrity of the membranes,[3],only partially compromised
Pertussis toxin,Stimulation of TGN vesicle release after pertussis toxin treatment,[4],1.6- 1.7 fold
Mastoparan,IC50 with normal versus ARF-depleted cytosol,[5],the same
same,IC50,[5]; read-out: IC50 for inhibition of in vitro Golgi transport,0.75 µM
same,IC50,"[5]; read-out: IC50 in vitro transport, addition of BFA 0 µM",2.2 µM
same,IC50,"[5]; read-out: IC50 in vitro transport, addition of BFA 200 µM",2 µM
same,IC50,"[5]; read-out: IC50 in vitro transport, addition of GTP 0 µM",1.4 µM
same,IC50,"[5]; read-out: IC50 in vitro transport, addition of GTP 50 µM",1.3 µM
same,IC50,"[5]; read-out: IC50 in vitro transport, mock-treated membranes",1.3 µM
same,IC50,"[5]; read-out: IC50 in vitro transport, pertussis toxin treated membranes",1.3 µM
same,Glycosylation of VSV-g protein after its delivery to the acceptor compartment,[1],subse- quent glycosylation is inhibited
same,IC50,"[1]; read-out: IC50, peptide added before glycosylation",2800 nM and 1900 nM
same,Effect on glycosylation of VSV-g protein,[2],similarly inhibitory effect
same,Integrity of the membranes,[3],near complete loss of membrane integrity
same,Increase in the amount of beta-COP bound to isolated Golgi membranes,[6],10 fold
same,Stimulation of p200 binding to rat liver Golgi membranes in vitro,[7],more than sevenfold
same,Inhibition of release of vesicles from the TGN,[4],~30%
